According to patent publication US8592374B2, “Neurotrophic peptides” (Research Foundation for Mental Hygiene, Inc., priority 2007, dated 2013):
Entries after “also recorded” stand apart in the source; their conditions may differ. Peptide text beside a SMILES is read from it. * marks the point of attachment. X1 = NC(=O)C12CC3CC(CC(N*)(C3)C1)C2

Key:
[1] = General examination (physical state, body weight, exploratory activity, swim speed, floating); format: in vivo, mice; conditions: 25 nmol/day for 35 days
Method: All in vivo studies for characterization of compounds (stereology and behavioral analysis) were performed on 8-10-month-old female retired breeders of C57Bl6 background. Animals were acclimatized for at least 3 weeks to exclude occasional pregnant mice from the studies. Mice were group-housed (3 animals per cage) with a 12:12 hours light/dark cycle and with free access to food and water.
(§1) For the compound treatment, mice (8 animals/group) received subcutaneous implants of extended release depot pellets containing P21 or P22 at 25 nmol/day for 35 days of continuous dosing (Innovative Research of America, USA). For the control group (8 animals), pellets consisted of the carrier polymer only. Mice were anesthetized with 2.5% Avertin (0.38 ml for a 25 g animal). Under sterile conditions, pellets were implanted subcutaneously along the anterolateral aspect of the right shoulder with a precision trochar (Innovative Research of America). After recovery of anesthesia, animals were transferred to the animal colony. No complications associated with the implantation and treatment were observed. All procedures on animals were conducted in accordance with approved protocols from our Institutional Animal Welfare Committee.
The physical state and condition of animals were carefully monitored throughout the treatment by evaluating grooming, physical state and clasping reflex. Body weight was also recorded.
The test used was an adaptation of the procedure previously described by Sargolini and collaborators (Sargolini, F., et al. Behav Brain Res 138 (2003):153-63). The testing apparatus was a classic open field (i.e. a PVC square arena, 50×50 cm, with walls 40 cm high). The open field was placed in a part of the room separated from the experimentator with a black opaque curtain. The open field was surmounted by a video camera connected to a computer. Three objects were employed in this task. The general procedure consisted of three different phases: a familiarization phase (1 session of 20 min), a sample phase, and a test phase. On the first days, mice were individually submitted to the familiarization session during which they were introduced in the empty arena in order to become familiar with the apparatus. This familiarization session allowed to record a baseline level of locomotor activity (measuring the distance covered in the open field) and of anxiety (measuring the time the animals spent in the centre of the arena during the first five minutes). On the second day each mouse was first submitted to the sample phase (session 1, ten minutes) for which two identical objects were placed in a symmetric position from the centre of the arena. After a 15 minute delay during which the mouse returned to its home cage, it was reintroduced in the arena to perform the test phase (session 2, 10 min). The mouse was then exposed to two objects: a familiar object (previously presented during the sample phase) and a new object, placed at the same location as during the sample phase. Data collection was performed using a video tracking system (Smart version 2.0.14 software, Pan Lab/San Diego Instruments). Object discrimination was calculated as follows: OD=(time spent close to new object)/(time spent close to new object)+(time spent close to old object)×100

normal adult mice = assay: Open field, time in the centre of the arena (anxiety); format: in vivo; conditions: 25 nmol/day, first five minutes of familiarization session
Method: as §1
The test used was an adaptation of the procedure previously described by Sargolini and collaborators (Sargolini, F., et al. Behav Brain Res 138 (2003):153-63). The testing apparatus was a classic open field (i.e. a PVC square arena, 50×50 cm, with walls 40 cm high). The open field was placed in a part of the room separated from the experimentator with a black opaque curtain. […] Object discrimination was calculated as follows: OD=(time spent close to new object)/(time spent close to new object)+(time spent close to old object)×100

[2] = tested on: adult hippocampal progenitors in the dentate gyrus; assay: Neurogenesis in the DG (BrdU-positive and BrdU/NeuN-double-positive cells); format: in vivo, mice; conditions: 25 nmol/day for 35 days
Method: as §1
To investigate neurogenesis, BrdU (Sigma, USA) was given as two daily i.p. injections (100 mg/kg/dose) for five days starting on day 2 of compounds treatment.
At the end of the behavioral experiment, animals were anesthetized with an overdose of sodium pentobarbital (120 mg/kg) and transcardially perfused with 0.1 M phosphate buffered saline (PBS). After perfusion, the brains were removed from the skull, the left hemisphere was immediately frozen for future biochemical analysis and the right hemisphere was immersion fixed in 4% paraformaldehyde in 0.1 M PBS for at least 24 hours at room temperature. Tissues were equilibrated and stored in 30% sucrose solution at 4° C. until sectioning. The brains were sectioned sagittaly on a freezing sliding microtome at 40 μm through the entire hippocampus and the sections were stored in glycol anti-freeze solution (Ethylene glycol, glycerol and 0.1 M PBS in 3:3:4 ratio) at −20° C. until further processing.
For double labeling of BrdU and NeuN, brain sections were pretreated with 2 M HCl at 37° C. for 30 min and neutralized with 0.1 M borate buffer (pH 8.5) for 10 minutes. […]
Neurogenesis in the dentate gyrus was evaluated by counting the number of BrdU-positive and BrdU/NeuN-double-positive cells in the dentate gyrus (DG). The number of positive cells was determined in every fifth section in a series of 40 μm sagittal sections throughout the DG using unbiased sterology. All BrdU-positive cells in the subgranular zone (SGZ) and granule cell layer (GCL) were counted using a fluorescent microscope (Nikon Eclipse 90i, Nikon Corporation, Japan). Double labeled cells were assessed by a confocal imaging system (D-Eclipse C1, Nikon Corporation). […] For each brain, at least 100 cells were counted based on coefficient of error determinations.

dentate gyrus = assay: Expression of synaptophysin and synapsin I in the DG (optical density); format: in vivo, mice; conditions: 25 nmol/day for 35 days
Method: For double labeling of BrdU and NeuN, brain sections were pretreated with 2 M HCl at 37° C. for 30 min and neutralized with 0.1 M borate buffer (pH 8.5) for 10 minutes. Tissue sections were incubated first for 30 min with blocking buffer (4% normal goat serum+0.1% Tween-20 in PBS) and then overnight at 4° C. in the presence of BrdU (Millipore Corporation, USA) and NeuN (Millipore Corporation) antibodies diluted 1:400 and 1:100, respectively. To determine the integrity of presynaptic terminals, tissues were labeled with anti-synaptophysin (1:200; Clone SY38, Millipore Corporation) or anti-synapsin I (1:200; Stressgen Biotechnologies Corporation, Canada). The brain sections were incubated in primary antibody over night at 4° C., respectively. Alexa 488 and 594 (1:500; Invitrogen, USA) were used as secondary antibodies. All images were obtained using Nikon Eclipse 90i and D-Eclipse C1 microscopes (Nikon Corporation, Japan).
For quantitative analysis of the expression of synaptophysin and synapsin I in DG, every tenth section in a series of 40 μm coronal sections throughout the hippocampus was analyzed. The entire area of GCL was outlined. Maximum projection images were then generated based on confocal z-stacks, and antibody staining was quantified by measuring the mean optical density (OD) with the help of NIH Image J program, version 1.32j (http://rsb.info.nih.gov/ij/).

[3] = General examination (physical state, body weight, exploratory activity, swim speed, floating); format: in vivo, mice; conditions: 25 nmol/day for 35 days; remark: listed apart in the source

CC(=O)N[C@@H](CC(=O)O)C(=O)NCC(=O)NCC(=O)N[C@@H](CC(C)C)C(=O)NC12CC3CC(C1)CC(C(N)=O)(C3)C2 [Peptide P21, Ac-DGGL^AG-NH2] (Ac-DGGL-X1)
exploratory behavior / exploratory activity ([1]; open field): no alteration; also recorded: did not induce any effect | body weight ([1]; subcutaneous pellets): no alteration; also recorded: did not induce any effect | general physical state ([1]; subcutaneous pellets): no alteration | level of anxiety (time in the center of the open field) (normal adult mice): spent more time in the center of the open field than control animals; also recorded: reduced anxiety level | BrdU positive cells in the DG (GCL and SGZ) [2]: significantly increased; also recorded: significant increase | BrdU/NeuN positive cells in the DG (GCL) [2]: significantly increased; also recorded: significant increase | synapsin I immunoreactivity in the GCL and MCL (dentate gyrus): significantly promoted expression; also recorded: Significant increases | synaptophysin immunoreactivity in the GCL and MCL (dentate gyrus): significantly promoted expression; also recorded: Significant increases | floating behavior in the water maze task (sign of depression or locomotor impairment) [3]: no floating behavior was observed | swim speed ([3]; water maze): no alteration; also recorded: did not induce any effect
